This passage reports IC50 results from ChEMBL document CHEMBL5550186, “Exploring the Potential of Cyclic Peptidyl Antitumor Agents Derived from Natural Macrocyclic Peptide Phakellistatin 13” (J Med Chem, 2024).

Data set [1] concerns HepG2. Description: Antiproliferative activity against human HepG2 cells incubated for 48 hrs by MTT assay. Type of data set: functional, cell-based. As to conditions: HepG2, 48 h. A general note: Formazan colour is commonly taken as a measure of viable cells.
Data set [2] in a line: Antiproliferative activity against mouse L929 cells incubated for 48 hrs by MTT assay. It is filed as toxicity, cell-based.
Data set [3] has as its system HeLa. Description: Antiproliferative activity against human HeLa cells incubated for 48 hrs by MTT assay. Type of data set: functional, cell-based.
Data set [4] deals with BEL-7404 tumor cell line. The data set is described as follows: Antiproliferative activity against human BEL-7404 tumor cell line incubated for 48 hrs by MTT assay. Type of data set: functional, cell-based. The settings on record: BEL-7404, 48 h.
Data set [5] deals with 4T1. The data set is described as follows: Antiproliferative activity against mouse 4T1 cells incubated for 48 hrs by MTT assay. The settings on record: 4T1, 48 h. Type of data set: functional, cell-based.
For data set [6], the system named is MDA-MB-231. The data set is described as follows: Antiproliferative activity against human MDA-MB-231 cells incubated for 48 hrs by MTT assay. It is filed as functional, cell-based. As to conditions: MDA-MB-231, 48 h.

Starred links: 1 amine or outer side, 2 acyl side, 3 side chain; linkers in the order of their positions; H or OH if unused. Non-standard residues stand in square brackets, D forms with d. Residues, ends and D or L forms follow the SMILES beside them. *: point of attachment. X1 = O=C1c2ccccc2[C@@](O)(CN(Cc2ccccc2)[*:1])N1CC(=O)[*:2]; X2 = O=C1c2ccccc2[C@](O)(CN(Cc2ccccc2)[*:1])N1CC(=O)[*:2]; Bn = c1ccc(C*)cc1

One may read the IC50 as the concentration at which inhibition is half-maximal. A low value points to greater potency. Regarding `COc1cccc2c1C(=O)c1c(O)c3c(c(O)c1C2=O)C[C@@](O)(C(=O)CO)C[C@@H]3O[C@H]1C[C@H](N)[C@H](O)[C@H](C)O1` [DOXORUBICIN], the concentration for half-maximal inhibition (IC50) in data set [1] was found to be 26.6 µM; in data set [3], 20.9 µM. For the same compound, in data set [2], the IC50 at 48 h is more than 100 µM.

`CC(C)C[C@@H]1NC(=O)[C@H]([C@@H](C)O)NC(=O)[C@@H]2CCCN2C(=O)CNC(=O)[C@H](Cc2ccccc2)NC(=O)[C@@H]2CCCN2C(=O)[C@H](Cc2c[nH]c3ccccc23)NC1=O` [PHAKELLISTATIN 13] (cyclo(FGPTLWP)): the IC50 amounted to 13.1 µM in data set [1]; 49.9 µM in data set [4]; 26.8 µM in data set [5]; 28.1 µM in data set [3]; 20.5 µM in data set [6]. For the same compound, in data set [2], the IC50 at 48 h is more than 100 µM.

On to `CC(C)C[C@@H]1NC(=O)[C@H]([C@@H](C)OCc2ccccc2)NC(=O)[C@@H]2CCCN2C(=O)[C@H](Cc2ccccc2)NC(=O)CN2C(=O)c3ccccc3[C@@]2(O)CN(Cc2ccccc2)C(=O)[C@@H]2CCCN2C(=O)[C@H](Cc2c[nH]c3ccccc23)NC1=O` (cyclo(FPT(Bn)LWP[X1])), for which the IC50 turned out to be 28.9 µM in data set [1]; 30.2 µM in data set [4]; 42.6 µM in data set [5]; 33.9 µM in data set [3]; 29.3 µM in data set [6]. In addition, in data set [2], the IC50 at 48 h was more than 100 µM.

For the compound `CC(C)C[C@H]1NC(=O)[C@@H]([C@H](C)OCc2ccccc2)NC(=O)[C@H]2CCCN2C(=O)CN2C(=O)c3ccccc3[C@@]2(O)CN(Cc2ccccc2)C(=O)[C@@H](Cc2ccccc2)NC(=O)[C@H]2CCCN2C(=O)[C@@H](Cc2c[nH]c3ccccc23)NC1=O`, the IC50 in data set [1] was determined as 29 µM; in data set [4], 25.7 µM; in data set [5], 42.4 µM; in data set [3], 31 µM; in data set [6] it was 17.8 µM. The same compound returned a concentration for half-maximal inhibition (IC50) at 48 h in data set [2] of more than 100 µM.

Take `CC(C)C[C@@H]1NC(=O)[C@H]([C@@H](C)OCc2ccccc2)NC(=O)[C@@H]2CCCN2C(=O)[C@H](Cc2ccccc2)NC(=O)[C@@H]2CCCN2C(=O)CN2C(=O)c3ccccc3[C@]2(O)CN(Cc2ccccc2)C(=O)[C@H](Cc2c[nH]c3ccccc23)NC1=O` (cyclo(FPT(Bn)LW[X2]P)): the IC50 in data set [1] stood at 44.3 µM; in data set [4] it was 36.1 µM; in data set [5] it was 65.2 µM; in data set [3], 52.8 µM; in data set [6], 14 µM. This compound returned a half-maximal inhibitory concentration (IC50) at 48 h in data set [2] of more than 100 µM.

As to `CC(C)C[C@@H]1NC(=O)[C@H]([C@@H](C)OCc2ccccc2)NC(=O)[C@@H]2CCCN2C(=O)[C@H](Cc2ccccc2)NC(=O)[C@@H]2CCCN2C(=O)[C@H](Cc2c[nH]c3ccccc23)NC(=O)CN2C(=O)c3ccccc3[C@@]2(O)CN(Cc2ccccc2)C1=O` (cyclo(FPT(Bn)L[X1]WP)), the IC50 in data set [1] was found to be 31.1 µM; in data set [4], 28.7 µM; in data set [5], 67.5 µM; in data set [3], 35.9 µM; in data set [6] it was 14.4 µM. In data set [2], the IC50 at 48 h was more than 100 µM.

Take `CC(C)C[C@@H]1NC(=O)[C@H]([C@@H](C)OCc2ccccc2)NC(=O)CN2C(=O)c3ccccc3[C@]2(O)CN(Cc2ccccc2)C(=O)[C@@H]2CCCN2C(=O)[C@H](Cc2ccccc2)NC(=O)[C@@H]2CCCN2C(=O)[C@H](Cc2c[nH]c3ccccc23)NC1=O` (cyclo(FP[X2]T(Bn)LWP)): the IC50 in data set [1] was 32.6 µM; in data set [4], 38.9 µM; in data set [5] it was 65.9 µM; in data set [3] it was 50.8 µM; in data set [6] it was 26.1 µM. In data set [2], this compound came in with an IC50 at 48 h of more than 100 µM.

Consider `CC(C)C[C@@H]1NC(=O)[C@H]([C@@H](C)OCc2ccccc2)NC(=O)[C@@H]2CCCN2C(=O)CN2C(=O)c3ccccc3[C@@]2(O)CN(Cc2ccccc2)C(=O)[C@H](Cc2ccccc2)NC(=O)[C@@H]2CCCN2C(=O)[C@H](Cc2c[nH]c3ccccc23)NC1=O`, for which the concentration for half-maximal inhibition (IC50) in data set [1] is 24.1 µM; in data set [4] it was 30 µM; in data set [5], 54.7 µM; in data set [3] it was 28.6 µM; in data set [6], 15.4 µM. This compound also returned a 50% inhibitory concentration (IC50) at 48 h in data set [2] of more than 100 µM.

Regarding `CC(C)C[C@@H]1NC(=O)CN2C(=O)c3ccccc3[C@]2(O)CN(Cc2ccccc2)C(=O)[C@H]([C@@H](C)OCc2ccccc2)NC(=O)[C@@H]2CCCN2C(=O)[C@H](Cc2ccccc2)NC(=O)[C@@H]2CCCN2C(=O)[C@H](Cc2c[nH]c3ccccc23)NC1=O` (cyclo(FPT(Bn)[X2]LWP)), the 50% inhibitory concentration (IC50) in data set [1] was found to be 35.5 µM; in data set [4] it was 41.7 µM; in data set [5], 58.9 µM; in data set [3], 55.6 µM; in data set [6] it was 32.6 µM. The compound further showed an IC50 at 48 h in data set [2] of more than 100 µM.
